Laboratory results from publication PMC8791477, “Evaluation of SARS-CoV-2 entry, inflammation and new therapeutics in human lung tissue cells” (PLoS Pathogens, 2022).

Columns and labels:
[1] = test system: DNA-dependent DNA polymerases of some DNA viruses; conditions: cited from earlier work
[2] = in vitro; conditions: African green monkey, CC50 Vero E6, absence of virus
[3] = in vitro; conditions: human, CC50 HLT, absence of virus

Q: For `Nc1ncnc2c1ncn2[C@@H]1O[C@H](CO)[C@@H](O)[C@@H]1O` [Vidarabine], which “inhibition of viral DNA polymerases relative to those of host cells” value [1] is on record?
A: Purine nucleoside analogue ^80. Competitively inhibits DNA-dependent DNA polymerases of some DNA viruses approximately 40 times more than those of host cells ^80.

Q: What about the CC50 [2] of the same compound?
A: > 100 µM

Q: And the CC50 [3]?
A: > 100 µM
